Results published in ChEMBL document CHEMBL3885861, “Open TG-GATES”.

Organism: Rattus norvegicus
Test: Open TG-GATES - Regimen: Single
Format: toxicity, organism-based, Sprague-Dawley
Set-up: regimen Single, gender Male, age 6 weeks
Details: in vivo, po, 0 mg/kg, route gavage, dose level Control; for APTT / Bas / Eos / Fbg / Hb / Ht / Lym / MCH / MCHC / MCV / Mono / Neu / PT / Plat / RBC / Ret / WBC: tissue Blood; for KIDNEY_L / KIDNEY_R / KIDNEY_TOTAL: tissue Kidney; for LIVER: tissue Liver; for A/G / ALP / ALT / AST / BUN / CRE / Ca / Cl / DBIL / GLC / IP / K / LDH / Na / PL / RALB / TBIL / TC / TG / TP / gamma-GTP: tissue Plasma

CCc1oc2ccccc2c1C(=O)c1cc(I)c(O)c(I)c1 [BENZIODARONE]
TERMINAL_BW (3 h): 211.5 g | APTT (3 h): 16.8 s | Bas (3 h): 0% | Eos (3 h): 0.4% | Fbg (3 h): 205.2 mg/dL | Hb (3 h): 13.7 g/dL | Ht (3 h): 40.7% | Lym (3 h): 81.8% | MCH (3 h): 22 pg | MCHC (3 h): 33.6% | MCV (3 h): 65.5 fL | Mono (3 h): 8% | Neu (3 h): 9.6% | PT (3 h): 11.9 s | Plat (3 h): 114.1 x10_4/uL | RBC (3 h): 621 x10_4/ul | Ret (3 h): 9.1% | WBC (3 h): 100.3 x10_2/uL | KIDNEY_L (3 h): 1 g | KIDNEY_R (3 h): 1 g | KIDNEY_TOTAL (3 h): 2 g | LIVER (3 h): 9.9 g | A/G (3 h): 2.2 | ALP (3 h): 888.8 IU/L | ALT (3 h): 33.4 IU/L | AST (3 h): 64 IU/L | BUN (3 h): 12.8 mg/dL | CRE (3 h): 0.5 mg/dL | Ca (3 h): 10.8 mg/dL | Cl (3 h): 104.2 meq/L | DBIL (3 h): 0.006 mg/dL | GLC (3 h): 191.8 mg/dL | IP (3 h): 9.6 mg/dL | K (3 h): 4.6 meq/L | LDH (3 h): 93.2 IU/L | Na (3 h): 141.4 meq/L | PL (3 h): 146 mg/dL | RALB (3 h): 3.8 g/dL | TBIL (3 h): 0.3 mg/dL | TC (3 h): 79.4 mg/dL | TG (3 h): 59.8 mg/dL | TP (3 h): 5.5 g/dL | gamma-GTP (3 h): 1.4 IU/L | TERMINAL_BW (6 h): 210.7 g | APTT (6 h): 17.7 s | Bas (6 h): 0% | Eos (6 h): 0.8% | Fbg (6 h): 204.4 mg/dL | Hb (6 h): 13.8 g/dL | Ht (6 h): 41.4% | Lym (6 h): 84% | MCH (6 h): 21.7 pg | MCHC (6 h): 33.3% | MCV (6 h): 65.1 fL | Mono (6 h): 5% | Neu (6 h): 10.6% | PT (6 h): 12 s | Plat (6 h): 116.7 x10_4/uL | RBC (6 h): 636.4 x10_4/ul | Ret (6 h): 11.3% | WBC (6 h): 115.5 x10_2/uL | KIDNEY_L (6 h): 1 g | KIDNEY_R (6 h): 1 g | KIDNEY_TOTAL (6 h): 1.9 g | LIVER (6 h): 9.5 g | A/G (6 h): 2.2 | ALP (6 h): 852.8 IU/L | ALT (6 h): 33 IU/L | AST (6 h): 62 IU/L | BUN (6 h): 9.8 mg/dL | CRE (6 h): 0.5 mg/dL | Ca (6 h): 10.6 mg/dL | Cl (6 h): 104.6 meq/L | DBIL (6 h): 0.046 mg/dL | GLC (6 h): 180.2 mg/dL | IP (6 h): 9.3 mg/dL | K (6 h): 4.6 meq/L | LDH (6 h): 81.2 IU/L | Na (6 h): 141.4 meq/L | PL (6 h): 126.6 mg/dL | RALB (6 h): 3.7 g/dL | TBIL (6 h): 0.4 mg/dL | TC (6 h): 71.4 mg/dL | TG (6 h): 57.6 mg/dL | TP (6 h): 5.4 g/dL | gamma-GTP (6 h): 1.4 IU/L | TERMINAL_BW (9 h): 208.6 g | APTT (9 h): 18 s | Bas (9 h): 0% | Eos (9 h): 1% | Fbg (9 h): 199 mg/dL | Hb (9 h): 13.6 g/dL | Ht (9 h): 40% | Lym (9 h): 77.6% | MCH (9 h): 22.4 pg | MCHC (9 h): 34% | MCV (9 h): 66 fL | Mono (9 h): 7.2% | Neu (9 h): 14.4% | PT (9 h): 12.3 s | Plat (9 h): 113.9 x10_4/uL | RBC (9 h): 606 x10_4/ul | Ret (9 h): 8.6% | WBC (9 h): 92 x10_2/uL | KIDNEY_L (9 h): 1 g | KIDNEY_R (9 h): 1 g | KIDNEY_TOTAL (9 h): 1.9 g | LIVER (9 h): 8.7 g | A/G (9 h): 2.3 | ALP (9 h): 824.8 IU/L | ALT (9 h): 30.8 IU/L | AST (9 h): 62 IU/L | BUN (9 h): 9.8 mg/dL | CRE (9 h): 0.5 mg/dL | Ca (9 h): 10.3 mg/dL | Cl (9 h): 105.6 meq/L | DBIL (9 h): 0.062 mg/dL | GLC (9 h): 191.8 mg/dL | IP (9 h): 10.9 mg/dL | K (9 h): 4.5 meq/L | LDH (9 h): 67 IU/L | Na (9 h): 142.4 meq/L | PL (9 h): 128 mg/dL | RALB (9 h): 3.7 g/dL | TBIL (9 h): 0.3 mg/dL | TC (9 h): 71.2 mg/dL | TG (9 h): 32.8 mg/dL | TP (9 h): 5.3 g/dL | gamma-GTP (9 h): 0.8 IU/L | TERMINAL_BW (24 h): 224.5 g | APTT (24 h): 16.7 s | Bas (24 h): 0% | Eos (24 h): 1.2% | Fbg (24 h): 203.6 mg/dL | Hb (24 h): 13.3 g/dL | Ht (24 h): 39.4% | Lym (24 h): 75.8% | MCH (24 h): 22 pg | MCHC (24 h): 33.8% | MCV (24 h): 65.2 fL | Mono (24 h): 7.2% | Neu (24 h): 16.2% | PT (24 h): 11.8 s | Plat (24 h): 117.5 x10_4/uL | RBC (24 h): 604.6 x10_4/ul | Ret (24 h): 8.8% | WBC (24 h): 109.7 x10_2/uL | KIDNEY_L (24 h): 1 g | KIDNEY_R (24 h): 1 g | KIDNEY_TOTAL (24 h): 2 g | LIVER (24 h): 10.8 g | A/G (24 h): 2.1 | ALP (24 h): 1056.6 IU/L | ALT (24 h): 37.8 IU/L | AST (24 h): 66 IU/L | BUN (24 h): 17.6 mg/dL | CRE (24 h): 0.5 mg/dL | Ca (24 h): 10.7 mg/dL | Cl (24 h): 105.6 meq/L | DBIL (24 h): 0.008 mg/dL | GLC (24 h): 200.6 mg/dL | IP (24 h): 7.6 mg/dL | K (24 h): 4.8 meq/L | LDH (24 h): 76.2 IU/L | Na (24 h): 141.8 meq/L | PL (24 h): 149.8 mg/dL | RALB (24 h): 3.8 g/dL | TBIL (24 h): 0.3 mg/dL | TC (24 h): 76 mg/dL | TG (24 h): 109.6 mg/dL | TP (24 h): 5.6 g/dL | gamma-GTP (24 h): 1 IU/L
